Results from PubChem BioAssay AID1963852 (Molecular Pharmacology Branch, DTP, NCI, 2024).
pIC50: −log10 of the molar value.

Tested on: 282377-053-R-J1-PDC complex spheroid viability
Experiment: Anticancer human tumor 282377-053-R-J1-PDC patient-derived colon adenocarcinoma cell line growth inhibition [POLQ]
Conditions: for pIC50: curve of first compound; for viability, T/C: stronger effect = lower value; active = viability on the fitted dose curve at most 10% of control; inactive = the rest
Procedure, shortened: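 Three-cell-type spheroids modelling solid tumor plus stroma served as the readout system; POL inhibitors were tested individually and in combination, concentration ranges set by clinical Cmax where known.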

[1] = second compound 0.0316 µM, first compound 0.0316 µM
[2] = second compound 0.0316 µM, first compound 0.1 µM
[3] = second compound 0.0316 µM, first compound 0.316 µM
[4] = second compound 0.0316 µM, first compound 1 µM
[5] = second compound 0.0316 µM, first compound 3.16 µM
[6] = second compound 0.0316 µM, first compound 10 µM
[7] = second compound 0.1 µM, first compound 0.0316 µM
[8] = second compound 0.1 µM, first compound 0.1 µM
[9] = second compound 0.1 µM, first compound 0.316 µM
[10] = second compound 0.1 µM, first compound 1 µM
[11] = second compound 0.1 µM, first compound 3.16 µM
[12] = second compound 0.1 µM, first compound 10 µM
[13] = second compound 0.316 µM, first compound 0.0316 µM
[14] = second compound 0.316 µM, first compound 0.1 µM
[15] = second compound 0.316 µM, first compound 0.316 µM
[16] = second compound 0.316 µM, first compound 1 µM
[17] = second compound 0.316 µM, first compound 3.16 µM
[18] = second compound 0.316 µM, first compound 10 µM
[19] = second compound 1 µM, first compound 0.0316 µM
[20] = second compound 1 µM, first compound 0.1 µM
[21] = second compound 1 µM, first compound 0.316 µM
[22] = second compound 1 µM, first compound 1 µM
[23] = second compound 1 µM, first compound 3.16 µM
[24] = second compound 1 µM, first compound 10 µM
[25] = second compound 3.16 µM, first compound 0.0316 µM
[26] = second compound 3.16 µM, first compound 0.1 µM
[27] = second compound 3.16 µM, first compound 0.316 µM
[28] = second compound 3.16 µM, first compound 1 µM
[29] = second compound 3.16 µM, first compound 3.16 µM
[30] = second compound 3.16 µM, first compound 10 µM
[31] = second compound 10 µM, first compound 0.0316 µM
[32] = second compound 10 µM, first compound 0.1 µM
[33] = second compound 10 µM, first compound 0.316 µM
[34] = second compound 10 µM, first compound 1 µM
[35] = second compound 10 µM, first compound 3.16 µM
[36] = second compound 10 µM, first compound 10 µM
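Also: spheroids exposed to compounds for seven days.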
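For viability, T/C in this document: 100% = DMSO vehicle control viability.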

CC1COCCN1c1cc(C2(O)CC3CCC(C2)O3)c2cnn(-c3ccn[nH]3)c2n1 (stereo not drawn) + COC1C(OC(N)=O)C(O)C(Oc2ccc3c(O)c(NC(=O)c4ccc(O)c(CC=C(C)C)c4)c(=O)oc3c2C)OC1(C)C
6.34: pIC50 (second compound 3.16 µM)
6.51: pIC50 (second compound 10 µM)
6.49: pIC50 (second compound 0.1 µM)
6.37: pIC50 (second compound 0.0316 µM)
6.31: pIC50 (second compound 1 µM)
6.30: pIC50 (second compound 0.316 µM)
inactive: viability, T/C [1] 112% | viability, T/C [2] 89.5% | viability, T/C [3] 53.8% | viability, T/C [4] 35.9% | viability, T/C [5] 24.6% | viability, T/C [6] 20.8% | viability, T/C [7] 88.8% | viability, T/C [8] 92.1% | viability, T/C [9] 50.4% | viability, T/C [10] 31.4% | viability, T/C [11] 28.2% | viability, T/C [12] 18.8% | viability, T/C [13] 92.8% | viability, T/C [14] 91.3% | viability, T/C [15] 60.8% | viability, T/C [16] 32.9% | viability, T/C [17] 34.8% | viability, T/C [18] 18.7% | viability, T/C [19] 92.4% | viability, T/C [20] 77.2% | viability, T/C [21] 57.9% | viability, T/C [22] 36.3% | viability, T/C [23] 28.4% | viability, T/C [24] 19.5% | viability, T/C [25] 115% | viability, T/C [26] 74.5% | viability, T/C [27] 54.8% | viability, T/C [28] 42% | viability, T/C [29] 33% | viability, T/C [30] 18.6% | viability, T/C [31] 101% | viability, T/C [32] 73.7% | viability, T/C [33] 47.3% | viability, T/C [34] 36.4% | viability, T/C [35] 27.9% | viability, T/C [36] 22.6%

COc1cc2cc(C(=O)CCC(=O)O)sc2cc1OC + COC1C(OC(N)=O)C(O)C(Oc2ccc3c(O)c(NC(=O)c4ccc(O)c(CC=C(C)C)c4)c(=O)oc3c2C)OC1(C)C
inactive: viability, T/C [1] 118% | viability, T/C [2] 103% | viability, T/C [3] 128% | viability, T/C [4] 104% | viability, T/C [5] 113% | viability, T/C [6] 99.3% | viability, T/C [7] 105% | viability, T/C [8] 105% | viability, T/C [9] 116% | viability, T/C [10] 107% | viability, T/C [11] 99.1% | viability, T/C [12] 88.3% | viability, T/C [13] 121% | viability, T/C [14] 102% | viability, T/C [15] 83.1% | viability, T/C [16] 105% | viability, T/C [17] 86.9% | viability, T/C [18] 93.2% | viability, T/C [19] 109% | viability, T/C [20] 97.1% | viability, T/C [21] 109% | viability, T/C [22] 97.1% | viability, T/C [23] 114% | viability, T/C [24] 86.6% | viability, T/C [25] 111% | viability, T/C [26] 87.3% | viability, T/C [27] 119% | viability, T/C [28] 99.5% | viability, T/C [29] 86.7% | viability, T/C [30] 115% | viability, T/C [31] 99% | viability, T/C [32] 93.7% | viability, T/C [33] 117% | viability, T/C [34] 115% | viability, T/C [35] 105% | viability, T/C [36] 123%
< 5.00: pIC50 (second compound 0.0316 µM) | pIC50 (second compound 0.1 µM) | pIC50 (second compound 0.316 µM) | pIC50 (second compound 1 µM) | pIC50 (second compound 3.16 µM) | pIC50 (second compound 10 µM)

CCCS(=O)(=O)Nc1ccc(F)c(C(=O)c2c[nH]c3ncc(-c4ccc(Cl)cc4)cc23)c1F + Nc1ccc(C#CCN(C(=O)Cc2ncc(C(F)(F)F)cc2C(F)(F)F)c2ccc(F)cc2)nn1
< 5.00: pIC50 (second compound 0.0316 µM) | pIC50 (second compound 0.1 µM) | pIC50 (second compound 0.316 µM) | pIC50 (second compound 1 µM) | pIC50 (second compound 3.16 µM) | pIC50 (second compound 10 µM)
inactive: viability, T/C [1] 94.3% | viability, T/C [2] 77% | viability, T/C [3] 71.1% | viability, T/C [4] 57.9% | viability, T/C [5] 60.4% | viability, T/C [6] 61.9% | viability, T/C [7] 105% | viability, T/C [8] 80.2% | viability, T/C [9] 77% | viability, T/C [10] 60.5% | viability, T/C [11] 77.2% | viability, T/C [12] 80.7% | viability, T/C [13] 81.5% | viability, T/C [14] 81% | viability, T/C [15] 73% | viability, T/C [16] 70.9% | viability, T/C [17] 66.2% | viability, T/C [18] 74.1% | viability, T/C [19] 99.8% | viability, T/C [20] 93.9% | viability, T/C [21] 68.9% | viability, T/C [22] 62.4% | viability, T/C [23] 59.1% | viability, T/C [24] 60.1% | viability, T/C [25] 120% | viability, T/C [26] 90% | viability, T/C [27] 69.5% | viability, T/C [28] 78.8% | viability, T/C [29] 63.4% | viability, T/C [30] 70.4% | viability, T/C [31] 107% | viability, T/C [32] 97.6% | viability, T/C [33] 80.8% | viability, T/C [34] 71.9% | viability, T/C [35] 63.9% | viability, T/C [36] 65.3%

CNCc1ccc(-c2[nH]c3cc(F)cc4c3c2CCNC4=O)cc1 + Nc1ccc(C#CCN(C(=O)Cc2ncc(C(F)(F)F)cc2C(F)(F)F)c2ccc(F)cc2)nn1
< 5.00: pIC50 (second compound 0.0316 µM) | pIC50 (second compound 0.1 µM) | pIC50 (second compound 0.316 µM) | pIC50 (second compound 1 µM) | pIC50 (second compound 3.16 µM) | pIC50 (second compound 10 µM)
inactive: viability, T/C [1] 105% | viability, T/C [2] 88.6% | viability, T/C [3] 90% | viability, T/C [4] 104% | viability, T/C [5] 108% | viability, T/C [6] 112% | viability, T/C [7] 119% | viability, T/C [8] 117% | viability, T/C [9] 104% | viability, T/C [10] 94.6% | viability, T/C [11] 97.4% | viability, T/C [12] 112% | viability, T/C [13] 95.7% | viability, T/C [14] 86.2% | viability, T/C [15] 89.8% | viability, T/C [16] 108% | viability, T/C [17] 92% | viability, T/C [18] 108% | viability, T/C [19] 95% | viability, T/C [20] 103% | viability, T/C [21] 100% | viability, T/C [22] 90.8% | viability, T/C [23] 115% | viability, T/C [24] 101% | viability, T/C [25] 109% | viability, T/C [26] 98.3% | viability, T/C [27] 127% | viability, T/C [28] 92.4% | viability, T/C [29] 118% | viability, T/C [30] 139% | viability, T/C [31] 113% | viability, T/C [32] 105% | viability, T/C [33] 126% | viability, T/C [34] 121% | viability, T/C [35] 113% | viability, T/C [36] 145%
